This note sets out measurements from patent publication US12679848B2, “Plasma kallikrein inhibitors” (Merck Sharp & Dohme LLC, priority 2020, dated 2026).

Assay [1] concerns the target T1, Human plasma kallikrein (Homo sapiens, UniProt P03952).
T1 construct: yields a heavy chain (371 amino acids) and a light chain (248 amino acids); The active site of plasma kallikrein is contained in the light chain; purchased Enzyme Research Laboratories
Briefly: Plasma Kallikrein Assay. It is filed as biochemical. The conditions noted are these: purified Human plasma kallikrein 0.5 nM, substrate Acetyl-K-P-R-AFC, HEPES pH 7.4; read-out: PKal IC50. In a few lines: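 Purified human plasma kallikrein at 0.5 nM final with substrate Acetyl-K-P-R-AFC at […], in 50 mM HEPES pH 7.4, 150 mM NaCl, 5 mM CaCl2, 0.1% PEG 8000, at rt or 37° C after enzyme-inhibitor equilibration. IC50 from four-parameter logistic fit of fluorescence rate; Ki via Cheng-Prusoff.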

For assay [2], the target named is human factor XIa (Homo sapiens, UniProt P03951). Put plainly: Factor XIa Assay. It is filed as biochemical. The conditions noted are these: human factor XIa 0.04 nM, substrate GPR-AFC, 30 min pre-incubation, 25° C., pH 7.4; read-out: FXIa IC50.
Chain of human factor XIa (P03951 388-625 limits assumed): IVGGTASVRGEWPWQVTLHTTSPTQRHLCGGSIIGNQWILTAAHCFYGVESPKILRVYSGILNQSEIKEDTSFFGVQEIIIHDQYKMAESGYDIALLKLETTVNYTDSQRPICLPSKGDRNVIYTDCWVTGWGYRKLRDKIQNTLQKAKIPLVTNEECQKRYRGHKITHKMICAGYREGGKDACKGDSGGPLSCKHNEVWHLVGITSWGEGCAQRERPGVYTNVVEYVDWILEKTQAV
Chain of human factor XIa (P03951 19-387 partner limits assumed): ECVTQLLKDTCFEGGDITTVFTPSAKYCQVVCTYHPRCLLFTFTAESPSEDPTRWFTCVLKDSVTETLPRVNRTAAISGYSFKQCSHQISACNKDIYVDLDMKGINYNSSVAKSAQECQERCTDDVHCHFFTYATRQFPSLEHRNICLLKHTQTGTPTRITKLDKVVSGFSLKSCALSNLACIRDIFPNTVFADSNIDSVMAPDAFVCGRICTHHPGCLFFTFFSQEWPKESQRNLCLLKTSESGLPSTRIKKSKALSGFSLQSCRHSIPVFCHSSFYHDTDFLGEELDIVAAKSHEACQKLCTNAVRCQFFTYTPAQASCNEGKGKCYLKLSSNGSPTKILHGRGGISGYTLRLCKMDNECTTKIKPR

T1 sequence (P03952 391-638 limits assumed): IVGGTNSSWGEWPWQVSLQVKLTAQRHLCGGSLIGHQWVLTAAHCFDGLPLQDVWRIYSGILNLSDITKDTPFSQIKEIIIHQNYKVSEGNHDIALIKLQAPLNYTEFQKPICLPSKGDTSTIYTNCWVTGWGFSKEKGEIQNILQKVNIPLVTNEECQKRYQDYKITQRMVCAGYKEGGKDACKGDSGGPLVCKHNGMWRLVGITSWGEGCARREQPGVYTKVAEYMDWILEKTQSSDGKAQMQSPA
T1 sequence (P03952 20-390 partner limits assumed): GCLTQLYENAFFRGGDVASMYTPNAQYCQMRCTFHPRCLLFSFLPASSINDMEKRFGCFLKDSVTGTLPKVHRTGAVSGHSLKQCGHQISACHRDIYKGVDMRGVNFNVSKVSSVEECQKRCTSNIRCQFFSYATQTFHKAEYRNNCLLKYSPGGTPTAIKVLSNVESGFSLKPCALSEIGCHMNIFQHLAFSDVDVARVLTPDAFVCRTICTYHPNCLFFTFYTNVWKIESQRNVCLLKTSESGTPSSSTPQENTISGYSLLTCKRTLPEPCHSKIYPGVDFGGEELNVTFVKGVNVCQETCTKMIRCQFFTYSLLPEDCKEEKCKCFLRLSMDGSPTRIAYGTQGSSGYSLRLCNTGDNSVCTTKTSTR

In the case of `CC1(C)CN(C(=O)c2cnn(CC(F)(F)F)c2N)C[C@]2(C1)OC(=O)Nc1ccc(Cl)c(F)c12` [Example 2, (R)-1′-(5-Amino-1-(2,2,2-trifluoroethyl)-1H-pyrazole-4-carbonyl)-6-chloro-5-fluoro-5′,5′-dimethylspiro[benzo[d][1,3]oxazine-4,3′-piperidin]-2(1H)-one], the 50% inhibitory concentration (IC50) in assay [1] is 2.7 nM; in assay [2] it was 211 nM.
For the compound `Nc1c(C(=O)N2CCC[C@@]3(C2)OC(=O)Nc2ccc(Cl)c(F)c23)cnn1-c1cccc2c1OC(F)(F)O2` [Example 91, (R)-1'-(5-Amino-1-(2,2-difluorobenzo[d][1,3]dioxol-4-y1)-1H-pyrazole-4-carbonyl)-6-chloro-5-fluorospiro[benzo[d][1,3]oxazine-4,3'-piperidin]-2(1H)-one], the IC50 in assay [1] was determined as 5.8 nM; in assay [2], 525 nM.
Regarding `Cc1cnccc1-n1ncc(C(=O)N2CCC[C@@]3(C2)OC(=O)Nc2ccc(Cl)c(F)c23)c1N` [Example 105, (R)-1'-(5-Amino-1-(3-methylpyridin-4-y1)-1H-pyrazole-4-carbony1)-6-chloro-5-fluorospiro[benzo[d][1,3]oxazine-4,3'-piperidin]-2(1H)-one], the half-maximal inhibitory concentration (IC50) in assay [1] was found to be 13.2 nM; in assay [2], 421 nM.
The like results for `Cn1ncc(C(=O)N2CCC[C@@]3(C2)OC(=O)Nc2ccc(Cl)c(F)c23)c1N` [Example 109, (R)-1'-(5-Amino-1-methyl-1H-pyrazole-4-carbonyl)-6-chloro-5-fluorospiro[benzo[d][1,3]oxazine-4,3'-piperidin]-2(1H)-one] were, in that order, 338 nM and greater than 10000 nM.
As to `Nc1c(C(=O)N2CCC[C@@]3(C2)OC(=O)Nc2ccc(Cl)c(F)c23)cnn1-c1ccncc1Cl` [Example 73, (R)-1'-(5-Amino-1-(3-chloropyridin-4-y1)-1H-pyrazole-4-carbonyl)-6-chloro-5-fluorospiro[benzo[d][1,3]oxazine-4,3'-piperidin]-2(1H)-one], the IC50 in assay [1] is 22.5 nM; in assay [2] it was 316 nM.
On to `Cc1ccc(Cn2ncc(C(=O)N3CCC[C@@]4(C3)OC(=O)Nc3ccc(Cl)c(F)c34)c2N)cc1` [Example 7, (R)-1'-(5-Amino-1-(4-methylbenzyl)-1H-pyrazole-4-carbonyl)-6-chloro-5-fluorospiro[benzo[d][1,3]oxazine-4,3'-piperidin]-2(1H)-one], for which the half-inhibitory concentration (IC50) in assay [1] came to 0.5 nM; in assay [2], 201 nM.
The like results for `Nc1c(C(=O)N2CCC[C@@]3(C2)OC(=O)Nc2ccc(Cl)c(F)c23)cnn1CC1CCOCC1` [Example 12, (R)-1'-(5-Amino-1-((tetrahydro-2H-pyran-4-yl)methyl)-1H-pyrazole-4-carbonyl)-6-chloro-5-fluorospiro[benzo[d][1,3]oxazine-4,3'-piperidin]-2(1H)-one] were, in that order, 8.1 nM and 476 nM.
`Nc1c(C(=O)N2CCC[C@@]3(C2)OC(=O)Nc2ccc(Cl)c(F)c23)cnn1C(C1CC1)C(F)(F)F` (single isomer, unassigned) [Example 125, (R)-1'-(5-Amino-1-((S or R)-1-cyclopropyl-2,2,2-trifluoroethyl)-1H-pyrazole-4-carbonyl)-6-chloro-5-fluorospiro[benzo[d][1,3]oxazine-4,3'-piperidin]-2(1H)-one]: the 50% inhibitory concentration (IC50) in assay [1] was found to be 4.5 nM; in assay [2] it was 154 nM.
On to `Nc1c(C(=O)N2CCC[C@@]3(C2)OC(=O)Nc2ccc(Cl)c(F)c23)cnn1-c1ncccc1F` [Example 62, (R)-1'-(5-Amino-1-(3-fluoropyridin-2-y1)-1H-pyrazole-4-carbonyl)-6-chloro-5-fluorospiro[benzo[d][1,3]oxazine-4,3'-piperidin]-2(1H)-one], for which the IC50 amounted to 22.9 nM in assay [1] and 855 nM in assay [2].
The corresponding values for `COc1c(F)cc(F)cc1-n1ncc(C(=O)N2CCC[C@@]3(C2)OC(=O)Nc2ccc(Cl)c(F)c23)c1N` [Example 101, (R)-1'-(5-Amino-1-(3,5-difluoro-2-methoxyphenyl)-1H-pyrazole-4-carbonyl)-6-chloro-5-fluorospiro[benzo[d][1,3]oxazine-4,3'-piperidin]-2(1H)-one] are 30.6 nM and 1310 nM.
The corresponding values for `CC1(C)CN(C(=O)c2cnn(Cc3ccccc3)c2N)C[C@]2(C1)OC(=O)Nc1ccc(Cl)c(F)c12` [Example 10, (R)-1'-(5-Amino-1-benzyl-1H-pyrazole-4-carbonyl)-6-chloro-5-fluoro-5',5'-dimethylspiro[benzo[d][1,3]oxazine-4,3'-piperidin]-2(1H)-one] are 1.3 nM and 122 nM.
With `CCC(C1CCOCC1)n1ncc(C(=O)N2CCC[C@@]3(C2)OC(=O)Nc2ccc(Cl)c(F)c23)c1N` (single isomer, unassigned) [Example 112, (R)-1'-(5-Amino-1-((R or S)-1-(tetrahydro-2H-pyran-4-yl)propyl)-1H-pyrazole-4-carbonyl)-6-chloro-5-fluorospiro[benzo[d][1,3]oxazine-4,3'-piperidin]-2(1H)-one], the IC50 in assay [1] was 2.2 nM; in assay [2], 62 nM.
The like results for `Nc1c(C(=O)N2CCC[C@@]3(C2)OC(=O)Nc2ccc(Cl)c(F)c23)cnn1CC1(C(F)(F)F)CC1` [Example 26, (R)-1'-(5-Amino-1-((1-(trifluoromethyl)cyclopropyl)methyl)-1H-pyrazole-4-carbonyl)-6-chloro-5-fluorospiro[benzo[d][1,3]oxazine-4,3'-piperidin]-2(1H)-one] were, in that order, 8.3 nM and 352 nM.
For `Nc1c(C(=O)N2CCC[C@@]3(C2)OC(=O)Nc2ccc(Cl)c(F)c23)cnn1-c1cc(F)ccc1OC(F)F` [Example 106, (R)-1'-(5-Amino-1-(2-(difluoromethoxy)-5-fluorophenyl)-1H-pyrazole-4-carbonyl)-6-chloro-5-fluorospiro[benzo[d][1,3]oxazine-4,3'-piperidin]-2(1H)-one], the IC50 came out at 34.8 nM in assay [1] and 1070 nM in assay [2].
As to `Nc1c(C(=O)N2CCC[C@@]3(C2)OC(=O)Nc2ccc(Cl)c(F)c23)cnn1-c1c(F)cccc1F` [Example 93, (R)-1'-(5-Amino-1-(2,6-difluorophenyl)-1H-pyrazole-4-carbonyl)-6-chloro-5-fluorospiro[benzo[d][1,3]oxazine-4,3'-piperidin]-2(1H)-one], the half-maximal inhibitory concentration (IC50) in assay [1] stood at 10.4 nM; in assay [2], 418 nM.
With `Cc1ccc(-n2ncc(C(=O)N3CCC[C@@]4(C3)OC(=O)Nc3ccc(Cl)c(F)c34)c2N)c(F)c1` [Example 66, (R)-1'-(5-Amino-1-(2-fluoro-4-methylpheny1)-1H-pyrazole-4-carbonyl)-6-chloro-5-fluorospiro[benzo[d][1,3]oxazine-4,3'-piperidin]-2(1H)-one], the results for the IC50 in assay [1] and in assay [2] were 39 nM and 242 nM, respectively.
For `CC(n1ncc(C(=O)N2CCC[C@@]3(C2)OC(=O)Nc2ccc(Cl)c(F)c23)c1N)C(F)(F)F` (single isomer, unassigned) [Example 120, (R)-1'-(5-Amino-1-((R or S)-1,1,1-trifluoropropan-2-y1)-1H-pyrazole-4-carbonyl)-6-chloro-5-fluorospiro[benzo[d][1,3]oxazine-4,3'-piperidin]-2(1H)-one], the half-inhibitory concentration (IC50) in assay [1] turned out to be 4.3 nM; in assay [2], 221 nM.
With `Nc1c(C(=O)N2CCC[C@@]3(C2)OC(=O)Nc2ccc(Cl)c(F)c23)cnn1C1(C(F)(F)F)CC(F)(F)C1` [Example 52, (R)-1'-(5-Amino-1-(3,3-difluoro-1-(trifluoromethyl)cyclobutyl)-1H-pyrazole-4-carbonyl)-6-chloro-5-fluorospiro[benzo[d][1,3]oxazine-4,3'-piperidin]-2(1H)-one], the half-inhibitory concentration (IC50) stood at 9.1 nM in assay [1] and 978 nM in assay [2].
Turning to `CC(=O)Nc1cccc(-n2ncc(C(=O)N3CCC[C@@]4(C3)OC(=O)Nc3ccc(Cl)c(F)c34)c2N)c1` [Example 71, (R)-N-(3-(5-Amino-4-(6-chloro-5-fluoro-2-oxo-1,2-dihydrospiro[benzo[d][1,3]oxazine-4,3'-piperidine]-1'-carbonyl)-1H-pyrazol-1-yl)phenyl)acetamide], the results for the IC50 in assay [1] and in assay [2] were 36.6 nM and 4050 nM, respectively.
For `CC1(n2ncc(C(=O)N3CCC[C@@]4(C3)OC(=O)Nc3ccc(Cl)c(F)c34)c2N)CCS(=O)(=O)C1` (single isomer, unassigned) [Example 119], the IC50 was 21 nM in assay [1] and 1460 nM in assay [2].
Consider `Nc1c(C(=O)N2CCC[C@@]3(C2)OC(=O)Nc2ccc(Cl)c(F)c23)cnn1-c1ccccc1OC(F)F` [Example 90, (R)-1'-(5-Amino-1-(2-(difluoromethoxy)phenyl)-1H-pyrazole-4-carbonyl)-6-chloro-5-fluorospiro[benzo[d][1,3]oxazine-4,3'-piperidin]-2(1H)-one], for which the IC50 in assay [1] stood at 6.6 nM; in assay [2], 215 nM.
For `Nc1c(C(=O)N2CCC[C@@]3(C2)OC(=O)Nc2ccc(Cl)c(F)c23)cnn1C1(c2ccc(F)cc2)CCC1` [Example 46, (R)-1'-(5-Amino-1-(1-(4-fluorophenyl)cyclobutyl)-1H-pyrazole-4-carbonyl)-6-chloro-5-fluorospiro[benzo[d][1,3]oxazine-4,3'-piperidin]-2(1H)-one], the IC50 worked out at 1.2 nM in assay [1] and 167 nM in assay [2].
As for `Nc1c(C(=O)N2CCC[C@@]3(C2)OC(=O)Nc2ccc(Cl)c(F)c23)cnn1C1(C(F)(F)F)CC1` [Example 50, (R)-1'-(5-Amino-1-(1-(trifluoromethyl)cyclopropyl)-1H-pyrazole-4-carbonyl)-6-chloro-5-fluorospiro[benzo[d][1,3]oxazine-4,3'-piperidin]-2(1H)-one], the 50% inhibitory concentration (IC50) in assay [1] amounted to 8.3 nM; in assay [2] it was 684 nM.

By IC50 is commonly meant the concentration that gives 50% inhibition.
